# Measured values from paper PMC5515969, “Effects of 31 FDA approved small-molecule kinase inhibitors on isolated rat liver mitochondria” (Archives of Toxicology, 2016).
# Tested on: RCC I–V
# Experiment: Activities of RCC I–V, overall statements
# Assay type: biochemical, rat
# Conditions: submitochondrial particles
# Description: KIs were incubated with submitochondrial particles (1 mg/ml) for 15 min and then RCC I–V activities measured. […] The activities of DMSO-treated samples (controls) were set as 1. […] The difference between the activity from rotenone-containing buffer and rotenone-absent buffer was considered as RCC I activity. […] For measuring RCC I/V and II activity, the changes in absorbance at 340 and 600 nm, respectively, were determined every 1 min for 6 min. For measuring RCC III and RCC IV, the changes in absorbance at 550 nm were measured every 10 s for 2 min.
row,Structure (SMILES),lowest concentration inhibiting RCCs
1,CNC(=O)c1cc(Oc2ccc(NC(=O)Nc3ccc(Cl)c(C(F)(F)F)c3)c(F)c2)ccn1 [Regorafenib],10 fold Cmax

# Same assay, conditions: submitochondrial particles, up to 100-fold Cmax or highest testable concentration
row,Structure (SMILES),RCCs inhibited
1,Cc1cc(Nc2ncc(Cl)c(Nc3ccccc3S(=O)(=O)C(C)C)n2)c(OC(C)C)cc1C1CCNCC1 [Ceritinib],all five RCCs
2,CNC(=O)c1cc(Oc2ccc(NC(=O)Nc3ccc(Cl)c(C(F)(F)F)c3)c(F)c2)ccn1 [Regorafenib],RCC II

# Tested on: isolated rat liver mitochondria
# Experiment: Mitochondrial toxicity, any endpoint, intact mitochondria and submitochondrial particles
# Assay type: biochemical
# Conditions: any endpoint
# In short: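 Rat liver mitochondria isolated by differential centrifugation in sucrose/Tris-MOPS/EGTA buffer pH 7.4, adjusted to 1 mg/ml protein before treatment. Kinase inhibitors added at 1:1000 dilution of stock; final DMSO 0.1%, with 0.1% DMSO controls.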
row,Structure (SMILES),lowest concentration causing significant mitochondrial toxicity
1,CNC(=O)c1cc(Oc2ccc(NC(=O)Nc3ccc(Cl)c(C(F)(F)F)c3)c(F)c2)ccn1 [Regorafenib],equal to the Cmax

# Same assay, conditions: concentrations equal to 100-fold Cmax
row,Structure (SMILES),mitochondrial injury
1,CNC(=O)c1cc(Oc2ccc(NC(=O)Nc3ccc(Cl)c(C(F)(F)F)c3)c(F)c2)ccn1 [Regorafenib],mitochondrial injury was induced

# Tested on: not listed separately
# Experiment: Solubility of drug in DMSO stock / reaction buffer at multiples of Cmax
# Assay type: physicochemical
# Conditions: not given
# Description: Supplement 204_2016_1918_MOESM3_ESM.xlsx, sheet "Sheet1" | column: 100 Cmax; 50 Cmax; note
row,Structure (SMILES),note (solubility)
1,CNC(=O)c1cc(Oc2ccc(NC(=O)Nc3ccc(Cl)c(C(F)(F)F)c3)c(F)c2)ccn1 [Regorafenib],808 mM will precipitate

# Tested on: isolated rat liver mitochondria
# Experiment: not given
# Conditions: 1XCmax; positive control alamethicin treated samples
row,Structure (SMILES),Cytochrome c release 1XCmax
1,Cc1cc(Nc2ncc(Cl)c(Nc3ccccc3S(=O)(=O)C(C)C)n2)c(OC(C)C)cc1C1CCNCC1 [Ceritinib],0
2,CNC(=O)c1cc(Oc2ccc(NC(=O)Nc3ccc(Cl)c(C(F)(F)F)c3)c(F)c2)ccn1 [Regorafenib],10.72±1.87 percentage of the positive control group

# Same assay, conditions: 2.5XCmax; positive control alamethicin treated samples
row,Structure (SMILES),Cytochrome c release 2.5XCmax
1,Cc1cc(Nc2ncc(Cl)c(Nc3ccccc3S(=O)(=O)C(C)C)n2)c(OC(C)C)cc1C1CCNCC1 [Ceritinib],0
2,CNC(=O)c1cc(Oc2ccc(NC(=O)Nc3ccc(Cl)c(C(F)(F)F)c3)c(F)c2)ccn1 [Regorafenib],22.56±1.84 percentage of the positive control group

# Same assay, conditions: 5XCmax; positive control alamethicin treated samples
row,Structure (SMILES),Cytochrome c release 5XCmax
1,Cc1cc(Nc2ncc(Cl)c(Nc3ccccc3S(=O)(=O)C(C)C)n2)c(OC(C)C)cc1C1CCNCC1 [Ceritinib],0
2,CNC(=O)c1cc(Oc2ccc(NC(=O)Nc3ccc(Cl)c(C(F)(F)F)c3)c(F)c2)ccn1 [Regorafenib],10.26±0.36 percentage of the positive control group

# Same assay, conditions: 10XCmax; positive control alamethicin treated samples
row,Structure (SMILES),Cytochrome c release 10XCmax
1,Cc1cc(Nc2ncc(Cl)c(Nc3ccccc3S(=O)(=O)C(C)C)n2)c(OC(C)C)cc1C1CCNCC1 [Ceritinib],0
2,CNC(=O)c1cc(Oc2ccc(NC(=O)Nc3ccc(Cl)c(C(F)(F)F)c3)c(F)c2)ccn1 [Regorafenib],7.42±0.36 percentage of the positive control group

# Same assay, conditions: 20XCmax; positive control alamethicin treated samples
row,Structure (SMILES),Cytochrome c release 20XCmax
1,Cc1cc(Nc2ncc(Cl)c(Nc3ccccc3S(=O)(=O)C(C)C)n2)c(OC(C)C)cc1C1CCNCC1 [Ceritinib],0

# Same assay, conditions: 30XCmax; positive control alamethicin treated samples
row,Structure (SMILES),Cytochrome c release 30XCmax
1,Cc1cc(Nc2ncc(Cl)c(Nc3ccccc3S(=O)(=O)C(C)C)n2)c(OC(C)C)cc1C1CCNCC1 [Ceritinib],0

# Same assay, conditions: 50XCmax; positive control alamethicin treated samples
row,Structure (SMILES),Cytochrome c release 50XCmax
1,Cc1cc(Nc2ncc(Cl)c(Nc3ccccc3S(=O)(=O)C(C)C)n2)c(OC(C)C)cc1C1CCNCC1 [Ceritinib],11.93±0.58 percentage of the positive control group

# Same assay, conditions: 100-fold Cmax; alamethicin = 100
row,Structure (SMILES),total cytochrome c leaked after treatment
1,Cc1cc(Nc2ncc(Cl)c(Nc3ccccc3S(=O)(=O)C(C)C)n2)c(OC(C)C)cc1C1CCNCC1 [Ceritinib],33%

# Same assay, conditions: 100XCmax; positive control alamethicin treated samples
row,Structure (SMILES),Cytochrome c release 100XCmax
1,Cc1cc(Nc2ncc(Cl)c(Nc3ccccc3S(=O)(=O)C(C)C)n2)c(OC(C)C)cc1C1CCNCC1 [Ceritinib],32.92±4.32 percentage of the positive control group

# Same assay, conditions: rat, 30 min, pH 7.4
row,Structure (SMILES),lowest concentration causing cytochrome c release
1,Cc1cc(Nc2ncc(Cl)c(Nc3ccccc3S(=O)(=O)C(C)C)n2)c(OC(C)C)cc1C1CCNCC1 [Ceritinib],50 fold Cmax

# Tested on: not given
# Experiment: not given
# Parameters: method as in product labeling
# Conditions: BBW: black box warning; W&P: Warnings and Precautions; ref product labeling; cited from earlier work
row,Structure (SMILES),Labeling for cardiotoxicity
1,CNC(=O)c1cc(Oc2ccc(NC(=O)Nc3ccc(Cl)c(C(F)(F)F)c3)c(F)c2)ccn1 [Regorafenib],W&P: Cardiac Ischemia and Infarction

# Same assay, conditions: ref product labeling; cited from earlier work
row,Structure (SMILES),Potential for cardiotoxicity (based on labeling)
1,CNC(=O)c1cc(Oc2ccc(NC(=O)Nc3ccc(Cl)c(C(F)(F)F)c3)c(F)c2)ccn1 [Regorafenib],1

# Tested on: not given
# Experiment: not given
# Conditions: BBW: black box warning; W&P: Warnings and Precautions; ref product labeling; cited from earlier work
# Remark: another data set of the same source
row,Structure (SMILES),Labeling for cardiotoxicity
1,Cc1cc(Nc2ncc(Cl)c(Nc3ccccc3S(=O)(=O)C(C)C)n2)c(OC(C)C)cc1C1CCNCC1 [Ceritinib],W&P:QT Interval Prolongation; Bradycardia

# Same assay, conditions: ref product labeling; cited from earlier work
row,Structure (SMILES),Potential for cardiotoxicity (based on labeling)
1,Cc1cc(Nc2ncc(Cl)c(Nc3ccccc3S(=O)(=O)C(C)C)n2)c(OC(C)C)cc1C1CCNCC1 [Ceritinib],1

# Tested on: isolated rat liver mitochondria
# Experiment: Mitochondrial ROS production (CM-H2DCFDA)
# Conditions: not given
row,Structure (SMILES),lowest concentration triggering ROS overproduction
1,Cc1cc(Nc2ncc(Cl)c(Nc3ccccc3S(=O)(=O)C(C)C)n2)c(OC(C)C)cc1C1CCNCC1 [Ceritinib],50 fold Cmax

# Same assay, conditions: 1XCmax; DMSO treated samples set as 1
row,Structure (SMILES),ROS measured by CM-H2DCFDA at 1XCmax
1,Cc1cc(Nc2ncc(Cl)c(Nc3ccccc3S(=O)(=O)C(C)C)n2)c(OC(C)C)cc1C1CCNCC1 [Ceritinib],0
2,CNC(=O)c1cc(Oc2ccc(NC(=O)Nc3ccc(Cl)c(C(F)(F)F)c3)c(F)c2)ccn1 [Regorafenib],0

# Same assay, conditions: 2.5XCmax; DMSO treated samples set as 1
row,Structure (SMILES),ROS measured by CM-H2DCFDA at 2.5XCmax
1,Cc1cc(Nc2ncc(Cl)c(Nc3ccccc3S(=O)(=O)C(C)C)n2)c(OC(C)C)cc1C1CCNCC1 [Ceritinib],0
2,CNC(=O)c1cc(Oc2ccc(NC(=O)Nc3ccc(Cl)c(C(F)(F)F)c3)c(F)c2)ccn1 [Regorafenib],0

# Same assay, conditions: 5XCmax; DMSO treated samples set as 1
row,Structure (SMILES),ROS measured by CM-H2DCFDA at 5XCmax
1,Cc1cc(Nc2ncc(Cl)c(Nc3ccccc3S(=O)(=O)C(C)C)n2)c(OC(C)C)cc1C1CCNCC1 [Ceritinib],0
2,CNC(=O)c1cc(Oc2ccc(NC(=O)Nc3ccc(Cl)c(C(F)(F)F)c3)c(F)c2)ccn1 [Regorafenib],0

# Same assay, conditions: 10XCmax; DMSO treated samples set as 1
row,Structure (SMILES),ROS measured by CM-H2DCFDA at 10XCmax
1,Cc1cc(Nc2ncc(Cl)c(Nc3ccccc3S(=O)(=O)C(C)C)n2)c(OC(C)C)cc1C1CCNCC1 [Ceritinib],0
2,CNC(=O)c1cc(Oc2ccc(NC(=O)Nc3ccc(Cl)c(C(F)(F)F)c3)c(F)c2)ccn1 [Regorafenib],0

# Same assay, conditions: 20XCmax; DMSO treated samples set as 1
row,Structure (SMILES),ROS measured by CM-H2DCFDA at 20XCmax
1,Cc1cc(Nc2ncc(Cl)c(Nc3ccccc3S(=O)(=O)C(C)C)n2)c(OC(C)C)cc1C1CCNCC1 [Ceritinib],0

# Same assay, conditions: 30XCmax; DMSO treated samples set as 1
row,Structure (SMILES),ROS measured by CM-H2DCFDA at 30XCmax
1,Cc1cc(Nc2ncc(Cl)c(Nc3ccccc3S(=O)(=O)C(C)C)n2)c(OC(C)C)cc1C1CCNCC1 [Ceritinib],0

# Same assay, conditions: 50XCmax; DMSO treated samples set as 1
row,Structure (SMILES),ROS measured by CM-H2DCFDA at 50XCmax
1,Cc1cc(Nc2ncc(Cl)c(Nc3ccccc3S(=O)(=O)C(C)C)n2)c(OC(C)C)cc1C1CCNCC1 [Ceritinib],2.51±0.21

# Same assay, conditions: 100XCmax; DMSO treated samples set as 1
row,Structure (SMILES),ROS measured by CM-H2DCFDA at 100XCmax
1,Cc1cc(Nc2ncc(Cl)c(Nc3ccccc3S(=O)(=O)C(C)C)n2)c(OC(C)C)cc1C1CCNCC1 [Ceritinib],1.93±0.49

# Same assay, conditions: highest tested concentrations
row,Structure (SMILES),effect on ROS production
1,Cc1cc(Nc2ncc(Cl)c(Nc3ccccc3S(=O)(=O)C(C)C)n2)c(OC(C)C)cc1C1CCNCC1 [Ceritinib],significantly ROS production
2,CNC(=O)c1cc(Oc2ccc(NC(=O)Nc3ccc(Cl)c(C(F)(F)F)c3)c(F)c2)ccn1 [Regorafenib],neither of them affected ROS production
